System: hiPSC-derived NSCs undergoing differentiation
Experiment: Synaptogenesis by immunocytochemistry and HCI (overlapping SYP+/PSD95+ puncta)
Assay type: cell-based, human
Conditions: 14 days, concentrations ≤ IC20
Method: After 14 days of treatment with CPF at the nominal concentrations of 18.45, 21.21, 24.39, 28.05, 32.26, and 37.10 μM (37.10 μM equal to IC20), obtained considering a 1-to-1.15 dilution factor, cells were fixed with 4 % formaldehyde for 10 min and washed three times in PBS 1 × . After 15 min permeabilization with PBS 1X containing 0.1 % Triton-X-100 and 3,5 % bovine serum albumin (BSA), cells were further incubated with 3,5 % BSA and 1X PBS (blocking solution) for 15 min, to prevent nonspecific binding of antibodies, and then incubated at 4 °C overnight with primary antibodies in blocking solution. […] Neurite outgrowth and BDNF protein levels were assessed by staining the cells with an antibody specific for β-III-tubulin (mouse, 1:500, ThermoFisher), and one for BDNF (rabbit, 1:70, ThermoFisher). […] Mean fluorescence intensity and the relative percentages of immunocytochemically-defined cell types were quantified using the ArrayScan™ XTI High Content Platform (Cellomics) (ThermoFisher) and the ArrayScan algorithm 'Neuronal Profiling V4.1', as previously described. […] Other masks were applied to identify the neurites, their branch points, and the fluorescence intensity levels of SYP and PSD95 puncta, or BDNF protein. […]

For `CCOP(=S)(OCC)Oc1nc(Cl)c(Cl)cc1Cl` [CPF, Chlorpyrifos], the “number of synapses (co-localization of SYP+/PSD95+ puncta)” value was “remarkable dose-dependent decrease”.

— PMC7772889, “Integrating biokinetics and in vitro studies to evaluate developmental neurotoxicity induced by chlorpyrifos in human iPSC-derived neural stem cells undergoing differentiation towards neuronal and glial cells” (Reproductive Toxicology (Elmsford, N.y.), 2020)
